According to ChEMBL document CHEMBL3885861, “Open TG-GATES”:

Species: Rattus norvegicus
Assay: Open TG-GATES - Regimen: Single
Format: toxicity, organism-based, Sprague-Dawley
Set-up: regimen Single, gender Male, age 6 weeks
Details: in vivo, po, 0 mg/kg, route gavage, dose level Control; for APTT / Bas / Eos / Fbg / Hb / Ht / Lym / MCHC / MCV / Mono / Neu / PT / Plat / RBC / Ret / WBC: tissue Blood; for KIDNEY_L / KIDNEY_R / KIDNEY_TOTAL: tissue Kidney; for LIVER: tissue Liver; for ALP / ALT / AST / BUN / CRE / Ca / Cl / DBIL / GLC / IP / K / LDH / Na / PL / RALB / TBIL / TC / TG / TP / gamma-GTP: tissue Plasma

`C1CCC(C(CC2CCCCN2)C2CCCCC2)CC1` (configuration not stated) [PERHEXILINE] gave a TERMINAL_BW (3 h) of 206.4 g, an APTT (3 h) of 21.3 s and a Bas (3 h) of 0%. For the same compound, the Eos (3 h) was 0.6%, the Fbg (3 h) was 324 mg/dL and the Hb (3 h) was 13.5 g/dL. For the same compound, the Ht (3 h) was 39.5%, the Lym (3 h) was 80.6% and the MCHC (3 h) was 34%. For the same compound, the MCV (3 h) was 62.3 fL, the Mono (3 h) was 1.4% and the Neu (3 h) was 16.8%. The PT (3 h) was 16 s, the Plat (3 h) was 117.8 x10_4/uL and the RBC (3 h) was 634.6 x10_4/ul. For the same compound, the Ret (3 h) was 6.3%, the WBC (3 h) was 77.4 x10_2/uL and the KIDNEY_L (3 h) was 0.9 g. The KIDNEY_R (3 h) was 0.9 g, the KIDNEY_TOTAL (3 h) was 1.8 g and the LIVER (3 h) was 9.2 g. It also gave an ALP (3 h) of 1964.4 IU/L, an ALT (3 h) of 42.6 IU/L and an AST (3 h) of 70.8 IU/L. The BUN (3 h) was 14.8 mg/dL, the CRE (3 h) was 0.1 mg/dL and the Ca (3 h) was 10.9 mg/dL. It also gave a Cl (3 h) of 106.8 meq/L, a DBIL (3 h) of 0.002 mg/dL and a GLC (3 h) of 192.6 mg/dL. For the same compound, the IP (3 h) was 7.8 mg/dL, the K (3 h) was 4.2 meq/L and the LDH (3 h) was 147.6 IU/L. For the same compound, the Na (3 h) was 140.4 meq/L, the PL (3 h) was 144.4 mg/dL and the RALB (3 h) was 3.2 g/dL. It also gave a TBIL (3 h) of 0.014 mg/dL, a TC (3 h) of 79.8 mg/dL and a TG (3 h) of 63.4 mg/dL. The TP (3 h) was 5.7 g/dL, the gamma-GTP (3 h) was 0.8 IU/L and the TERMINAL_BW (6 h) was 210.1 g. For the same compound, the APTT (6 h) was 20.9 s, the Bas (6 h) was 0% and the Eos (6 h) was 0.4%. It also gave a Fbg (6 h) of 317.4 mg/dL, a Hb (6 h) of 13.2 g/dL and a Ht (6 h) of 39.3%. The Lym (6 h) was 79.8%, the MCHC (6 h) was 33.6% and the MCV (6 h) was 65.6 fL. For the same compound, the Mono (6 h) was 2.2%, the Neu (6 h) was 16.6% and the PT (6 h) was 15.7 s. For the same compound, the Plat (6 h) was 130.2 x10_4/uL, the RBC (6 h) was 599.8 x10_4/ul and the Ret (6 h) was 7.4%. The WBC (6 h) was 75.5 x10_2/uL, the KIDNEY_L (6 h) was 1 g and the KIDNEY_R (6 h) was 1 g. The KIDNEY_TOTAL (6 h) was 1.9 g, the LIVER (6 h) was 9.3 g and the ALP (6 h) was 1510 IU/L. For the same compound, the ALT (6 h) was 37.8 IU/L, the AST (6 h) was 67.8 IU/L and the BUN (6 h) was 11.4 mg/dL. It also gave a CRE (6 h) of 0.1 mg/dL, a Ca (6 h) of 10.8 mg/dL and a Cl (6 h) of 105.2 meq/L. For the same compound, the DBIL (6 h) was 0 mg/dL, the GLC (6 h) was 178.8 mg/dL and the IP (6 h) was 9.8 mg/dL. It also gave a K (6 h) of 4 meq/L, an LDH (6 h) of 239.2 IU/L and a Na (6 h) of 140.4 meq/L. For the same compound, the PL (6 h) was 147.8 mg/dL, the RALB (6 h) was 3 g/dL and the TBIL (6 h) was 0.018 mg/dL. For the same compound, the TC (6 h) was 81.2 mg/dL, the TG (6 h) was 77.4 mg/dL and the TP (6 h) was 5.6 g/dL. It also gave a gamma-GTP (6 h) of 1 IU/L.
